This is an account of results in patent US20240376097A1, “BCL-2 Inhibitor” (BeiGene Ltd., priority 2020, published 2024).

Read-outs that look alike come from different tables or passages of the source.

In series [1] the target is Recombinant human Bcl-2 protein (Homo sapiens (Human), UniProt P10415). The experiment in a line: Bcl-2 TR-FRET Assay. It is filed as binding. The gist of the method:
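TR-FRET read (337 nm excitation, 520/490 nm emission) after 1 h with 0.5 nM FITC-labeled Bak peptide and Tb-cryptate anti-6His antibody. Bcl-2 at 0.05 nM had been pre-incubated 0.5 h with compound. IC50 fitted by four-parameter logistic equation.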

Series [2] addresses recombinant human Bcl-2-G101V protein (Homo sapiens (Human), UniProt P10415, G101V). Briefly: Bcl-2-G101V TR-FRET Assay. It is filed as binding. Conditions: Bcl-2 G101V mutant, TR-FRET; read-out: Biochemical assay (IC50, nM) Bcl-2 G101V. The gist of the method: (§1)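 Displacement of ligand from recombinant human Bcl-2-G101V measured by TR-FRET (ex337 nm, em490/520 nm), inhibition derived from the 490/520 ratio across compound titrations. IC50 from four-parameter logistic fit.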
For orientation: TR-FRET usually uses a lanthanide donor and a delayed reading to cut background.

The test system of series [3] is recombinant human Bcl-2-G101V protein. The experiment in a line: Bcl-2-G101V TR-FRET Assay. It is filed as binding. The following applies: for ratio of IC50 of Bcl-2 G101V/Bcl-2 wt, compared with Example F132b in WO2019210828 and ABT-199 (venetoclax): comparison in words; for Ratio of Bcl-2 G101V/WT: ratio of biochemical IC50 Bcl-2 G101V / Bcl-2 WT. The method, boiled down: as §1

Series [4] deals with RS4;11 (BCL-2 dependent acute lymphoblastic leukemia cell line). The experiment in a line: RS4;11 Cell Proliferation Assay. In kind it is cell-based. Conditions: Homo sapiens, RS4;11 cells, read-out: Cellular proliferation assay (IC50, nM) RS4. The gist of the method:
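Viability measured via CellTiter-Glo luminescence after a 48 h, 37 °C exposure to compounds (10 points, highest 1 μM). Seeding was 50,000 RS4;11 cells per well in 10% FBS RPMI-1640; IC50 given as mean.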

Series [5] has as its target recombinant human Bcl-2 D103Y protein (Homo sapiens (Human), UniProt P10415, D103Y). The experiment in a line: Bcl-2-D103Y Biochemical Assay (TR-FRET). It is filed as binding. Conditions: for IC50: TR-FRET, FITC labeled Bak peptide; for Ratio of Bcl-2 D103Y/Bcl-2 WT: ratio of IC50. The method, boiled down:
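Compounds titrated against the Bcl-2 D103Y–ligand interaction; inhibition derived from the TR-FRET emission ratio 490 nm/520 nm after 337 nm excitation. Four-parameter logistic fitting gave IC50.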

Series [6] is described as follows: Metabolic Stability Study, liver microsome incubation (human). It is filed as in vitro ADME. The following applies: human liver microsomes 0.5 mg/mL, 1 μM compound, NADPH; for half-life at 1 μM: NA^# = very stable, beyond the detection limits, read-out: T1/2 (min) Human; for microsomal CLint at 1 μM: read-out: CLint (μL × min^−1 × mg^−1) Human. The gist of the method: (§2)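 Test compounds (1 μM) incubated at 37° C with 0.5 mg/mL liver microsomes plus NADPH regenerating system; samples quenched at 0, 30 and 60 min. Parent loss measured by LC-MS/MS, giving CLint and T1/2, with CLint normalised to microsomal protein concentration.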

A short description of series [7]: Metabolic Stability Study, liver microsome incubation (mouse). It is filed as in vitro ADME. Conditions: mouse liver microsomes 0.5 mg/mL, 1 μM compound, NADPH; for half-life at 1 μM: NA^# = very stable, beyond the detection limits, read-out: T1/2 (min) mouse; for microsomal CLint at 1 μM: read-out: CLint (μL × min^−1 × mg^−1) mouse. The method, boiled down: as §2

The mark [8] stands for this setting: Bcl-2 wild type, TR-FRET, read-out: Biochemical assay (IC50, nM) Bcl-2 WT.
Where [9] appears, read: wild type Bcl-2, unit inferred, read-out: Bcl-2 WT.

Regarding `COc1cc(CN2CCN(C3CC4(C3)CN(c3ccc(C(=O)NS(=O)(=O)c5ccc(NC[C@H]6CC[C@](C)(O)CC6)c([N+](=O)[O-])c5)c(Oc5cnc6[nH]cc(F)c6c5)c3)C4)[C@H](c3ccccc3C(C)C)C2)ccc1C1CC1` [Example 232, 4-(6-((R)-4-(4-cyclopropyl-3-methoxybenzyl)-2-(2-isopropylphenyl)piperazin-1-yl)-2-azaspiro[3.3]heptan-2-yl)-2-((3-fluoro-1H-pyrrolo[2,3-b]pyridin-5-yl)oxy)-N-((4-((((1r,4r)-4-hydroxy-4-methylcyclohexyl)methyl)amino)-3-nitrophenyl)sulfonyl)benzamide], the IC50 in series [1] (setting [8]) was 0.7 nM; in series [1] (setting [9]) it was 0.59 nM; in series [2] it was 1.3 nM; in series [4] it was 0.13 nM; in series [5], 0.95 nM. The “ratio of IC50 of Bcl-2 G101V/Bcl-2 wt, compared with Example F132b in WO2019210828 and ABT-199 (venetoclax)” value in series [3] was “much lower”. Further, the “Ratio of Bcl-2 G101V/WT” value in series [3] was found to be 1.8. Moreover, in series [5], the “Ratio of Bcl-2 D103Y/Bcl-2 WT” value is on record as 1.6. For the same compound, the half-life at 1 μM came to 822 min in series [6] and 206 min in series [7]. The microsomal CLint at 1 μM in series [6] came out at 1.7 µL/min/mg; in series [7] it was 6.7 µL/min/mg.
Regarding `COc1cc(CN2CCN(C3CC4(C3)CN(c3ccc(C(=O)NS(=O)(=O)c5ccc(NC[C@H]6CC[C@](C)(O)CC6)c([N+](=O)[O-])c5)c(Oc5cnc6[nH]ccc6c5)c3)C4)[C@H](c3ccccc3C(C)C)C2)ccc1C1CC1` [Example 233, 2-((1H-pyrrolo[2,3-b]pyridin-5-yl)oxy)-4-(6-((R)-4-(4-cyclopropyl-3-methoxybenzyl)-2-(2-isopropylphenyl)piperazin-1-yl)-2-azaspiro[3.3]heptan-2-yl)-N-((4-((((1r,4r)-4-hydroxy-4-methylcyclohexyl)methyl)amino)-3-nitrophenyl)sulfonyl)benzamide], the IC50 in series [1] (setting [8]) was 0.43 nM; in series [1] (setting [9]), 0.43 nM; in series [2], 0.95 nM; in series [4] it was 0.13 nM; in series [5], 0.83 nM. For the same compound, in series [3], the “ratio of IC50 of Bcl-2 G101V/Bcl-2 wt, compared with Example F132b in WO2019210828 and ABT-199 (venetoclax)” value is “much lower”. The “Ratio of Bcl-2 G101V/WT” value in series [3] is 2.2. Besides, in series [5], the “Ratio of Bcl-2 D103Y/Bcl-2 WT” value was determined as 1.9. Moreover, the half-life at 1 μM worked out at 534 min in series [6] and 253 min in series [7]. For the same compound, the microsomal CLint at 1 μM in series [6] worked out at 2.6 µL/min/mg; in series [7], 5.5 µL/min/mg.
`COc1cc(CN2CCN(C3CC4(C3)CN(c3ccc(C(=O)NS(=O)(=O)c5ccc(NC[C@H]6CC[C@](C)(O)CC6)c([N+](=O)[O-])c5)c(Oc5cnc6[nH]cc(F)c6c5)c3)C4)[C@H](c3ccccc3C(C)C)C2)ccc1C` [Example 274, 2-((3-fluoro-1H-pyrrolo[2,3-b]pyridin-5-yl)oxy)-N-((4-((((1r,4r)-4-hydroxy-4-methylcyclohexyl)methyl)amino)-3-nitrophenyl)sulfonyl)-4-(6-((R)-2-(2-isopropylphenyl)-4-(3-methoxy-4-methylbenzyl)piperazin-1-yl)-2-azaspiro[3.3]heptan-2-yl) benzamide]: the IC50 worked out at 0.55 nM in series [1] (setting [8]); 0.55 nM in series [1] (setting [9]); 0.85 nM in series [2]; 0.15 nM in series [4]; 0.31 nM in series [5]. Further, the “Ratio of Bcl-2 G101V/WT” value in series [3] is given as 1.5. The “Ratio of Bcl-2 D103Y/Bcl-2 WT” value in series [5] was 0.57. The half-life at 1 μM in series [6] amounted to 344 min; in series [7], 289 min. The results for the microsomal CLint at 1 μM in series [6] and in series [7] were 4 µL/min/mg and 4.8 µL/min/mg, respectively.
Turning to `COc1cc(CN2CCN(C3CC4(CCN(c5ccc(C(=O)NS(=O)(=O)c6ccc(NC[C@H]7CC[C@](C)(O)CC7)c([N+](=O)[O-])c6)c(Oc6cnc7[nH]cc(F)c7c6)c5)CC4)C3)[C@H](c3ccccc3C(C)C)C2)cc2ccoc12` [Example 281, 2-((3-fluoro-1H-pyrrolo[2,3-b]pyridin-5-yl)oxy)-N-((4-((((1r,4r)-4-hydroxy-4-methylcyclohexyl)methyl)amino)-3-nitrophenyl)sulfonyl)-4-(2-((R)-2-(2-isopropylphenyl)-4-((7-methoxybenzofuran-5-yl)methyl)piperazin-1-yl)-7-azaspiro[3.5]nonan-7-yl)benzamide], the IC50 is 0.43 nM in series [1] (setting [8]); 0.43 nM in series [1] (setting [9]); 0.99 nM in series [2]; 0.13 nM in series [4]; 0.51 nM in series [5]. Further, the “Ratio of Bcl-2 G101V/WT” value in series [3] was 2.3. The “Ratio of Bcl-2 D103Y/Bcl-2 WT” value in series [5] worked out at 1.2. In addition, the half-life at 1 μM in series [6] was 870 min; in series [7] it was 564 min. Further, the microsomal CLint at 1 μM is 1.6 µL/min/mg in series [6] and 2.5 µL/min/mg in series [7].
Take `COc1cc(CN2CCN(C3CC4(CCN(c5ccc(C(=O)NS(=O)(=O)c6ccc(NC[C@H]7CC[C@](C)(O)CC7)c([N+](=O)[O-])c6)c(Oc6cnc7[nH]cc(F)c7c6)c5)CC4)C3)[C@H](c3ccccc3C(C)C)C2)cc2c1OCC2(C)C` [Example 285, 2-((3-fluoro-1H-pyrrolo[2,3-b]pyridin-5-yl)oxy)-N-((4-((((1r,4r)-4-hydroxy-4-methylcyclohexyl)methyl)amino)-3-nitrophenyl)sulfonyl)-4-(2-((R)-2-(2-isopropylphenyl)-4-((7-methoxy-3,3-dimethyl-2,3-dihydrobenzofuran-5-yl)methyl)piperazin-1-yl)-7-azaspiro [3.5]nonan-7-yl)benzamide]: the IC50 came to 0.26 nM in series [1] (setting [8]); 0.26 nM in series [1] (setting [9]); 0.87 nM in series [2]; 0.18 nM in series [4]; 0.49 nM in series [5]. The “Ratio of Bcl-2 G101V/WT” value in series [3] stood at 3.4. The “Ratio of Bcl-2 D103Y/Bcl-2 WT” value in series [5] worked out at 1.9. The half-life at 1 μM in series [6] was determined as 299 min; in series [7], 177 min. In addition, the microsomal CLint at 1 μM was determined as 4.6 µL/min/mg in series [6] and 7.8 µL/min/mg in series [7].
With `COc1cc(CN2CCN(C3CC4(C3)CN(c3ccc(C(=O)NS(=O)(=O)c5ccc(NC[C@H]6CC[C@](C)(O)CC6)c([N+](=O)[O-])c5)c(Oc5cnc6[nH]cc(F)c6c5)c3)C4)[C@H](c3ccccc3C(C)C)C2)cc2c1OCCC2` [Example 312, 2-((3-fluoro-1H-pyrrolo[2,3-b]pyridin-5-yl)oxy)-N-((4-((((1r,4r)-4-hydroxy-4-methylcyclohexyl)methyl)amino)-3-nitrophenyl)sulfonyl)-4-(6-((R)-2-(2-isopropylphenyl)-4-((8-methoxychroman-6-yl)methyl)piperazin-1-yl)-2-azaspiro[3.3]heptan-2-yl)benzamide], the IC50 stood at 0.094 nM in series [1] (setting [8]); 0.08 nM in series [1] (setting [9]); 0.27 nM in series [2]; 0.27 nM in series [4]; 0.081 nM in series [5]. The “Ratio of Bcl-2 G101V/WT” value in series [3] is reported as 2.9. In addition, the “Ratio of Bcl-2 D103Y/Bcl-2 WT” value in series [5] is listed as 1.0. In addition, the results for the half-life at 1 μM in series [6] and in series [7] were 423 min and 362 min, respectively. In addition, the microsomal CLint at 1 μM in series [6] amounted to 3.3 µL/min/mg; in series [7], 3.8 µL/min/mg.
As for `COc1cc(CN2CCN(C3CC4(C3)CN(c3ccc(C(=O)NS(=O)(=O)c5ccc(NC[C@H]6CC[C@](C)(O)CC6)c([N+](=O)[O-])c5)c(Oc5cnc6[nH]cc(F)c6c5)c3)C4)[C@H](c3ccccc3C(C)C)C2)ccc1OC1CC1` [Example 321, 4-(6-((R)-4-(4-cyclopropoxy-3-methoxybenzyl)-2-(2-isopropylphenyl)piperazin-1-yl)-2-azaspiro[3.3]heptan-2-yl)-2-((3-fluoro-1H-pyrolo[2,3-b]pyridin-5-yl)oxy)-N-((4-((((1r,4r)-4-hydroxy-4-methylcyclohexy)methyl)amino)-3-nitrophenyl)sulfonyl)benzamide], the IC50 in series [1] (setting [8]) was 0.17 nM; in series [1] (setting [9]), 0.17 nM; in series [2], 0.35 nM; in series [4] it was 0.22 nM; in series [5] it was 0.14 nM. Moreover, the “Ratio of Bcl-2 G101V/WT” value in series [3] is listed as 2. Also, the “Ratio of Bcl-2 D103Y/Bcl-2 WT” value in series [5] was determined as 0.79. Moreover, the half-life at 1 μM in series [6] worked out at 1020 min; in series [7], 628 min. In addition, the microsomal CLint at 1 μM in series [6] turned out to be 1.4 µL/min/mg; in series [7] it was 2.2 µL/min/mg.
